Test systems include EKVX NSCLC; MCF7 breast; HT29 colon; UACC-62 melanoma; U251 CNS; ACHN renal; MDA-N; SK-MEL-2 melanoma; SK-OV-3 ovarian.
Test in all cases: DTP human tumour cell line panel, 48 h

The values that follow come from PubChem BioAssay (NCI).

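Briefly, cells in 96-well plates were exposed to five compound concentrations for 48 h, and endpoints were estimated by linear interpolation. Here, GI50 denotes the concentration required for 50% inhibition of growth. Definition used: TGI = concentration required for complete inhibition of growth.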

As to `Oc1c(OCc2nnc(CCCCCCCCc3nnc(COc4ccc5ccccc5c4O)o3)o2)ccc2ccccc12`, the TGI in the test with EKVX NSCLC, in the test with MCF7 breast, with HT29 colon, in the test with UACC-62 melanoma, in the test with U251 CNS and with ACHN renal was > 100 µM throughout. Besides, the TGI with MDA-N, in the test with SK-MEL-2 melanoma and in the test on SK-OV-3 ovarian was > 100 µM in each case.

On to `CCOc1ccc(N=Nc2ccc3cc(/C(C)=N/NC(=O)/C(C#N)=C\c4ccc(N(CCC#N)CCC#N)cc4)c(=O)oc3c2)cc1`, for which the TGI in the test on EKVX NSCLC, in the test on MCF7 breast, with HT29 colon, in the test on UACC-62 melanoma, with U251 CNS and in the test with ACHN renal was > 10 µM in each case. Moreover, the TGI with MDA-N, in the test with SK-MEL-2 melanoma and in the test with SK-OV-3 ovarian was > 10 µM in each case.

Regarding `CCOC(=O)/C=C(/C=C\COC1CCCCO1)c1ccccc1` (configuration not stated), the TGI – broadly, the concentration at which net growth stops – is > 100 µM in the test with EKVX NSCLC; > 100 µM with MCF7 breast; 29.2 µM in the test with HT29 colon; 88.6 µM in the test on UACC-62 melanoma; 96 µM with U251 CNS; > 100 µM in the test on ACHN renal. Also, the TGI with MDA-N, in the test on SK-MEL-2 melanoma and in the test on SK-OV-3 ovarian was > 100 µM in each case.

For the compound `O=[N+]([O-])/C(Cl)=C(/C(Cl)=C(Cl)Cl)N1CCCCC1`, the TGI in the test with EKVX NSCLC is 39.7 µM; in the test with MCF7 breast, 17.4 µM; with HT29 colon, 29.5 µM; in the test with UACC-62 melanoma it was 17.1 µM; with U251 CNS, 26.8 µM; in the test with ACHN renal it was 30.7 µM. Also, the TGI in the test with MDA-N is 23.9 µM; in the test with SK-MEL-2 melanoma, 48 µM; with SK-OV-3 ovarian it was > 100 µM.

For the compound `Clc1cc(C(c2cc(Cl)sc2Cl)c2cc(Cl)sc2Cl)c(Cl)s1`, the TGI with EKVX NSCLC, in the test on MCF7 breast, with HT29 colon, with UACC-62 melanoma, in the test with U251 CNS and in the test on ACHN renal was > 100 µM each time. The TGI in the test on MDA-N, with SK-MEL-2 melanoma and with SK-OV-3 ovarian was > 100 µM in each case.

In the case of `N#C/C(=C\c1cccc(Br)c1)c1nc2ccccc2c(=O)[nH]1`, the TGI in the test on EKVX NSCLC, in the test on MCF7 breast, in the test with HT29 colon, with UACC-62 melanoma, in the test on U251 CNS and with ACHN renal was > 100 µM each time. Further, the TGI in the test with MDA-N, in the test with SK-MEL-2 melanoma and in the test with SK-OV-3 ovarian was > 100 µM in each case.

In the case of `Cc1nnc2n1-c1ccccc1N(Cc1ccccc1)CC2`, the TGI with EKVX NSCLC, in the test with MCF7 breast, with HT29 colon, in the test on UACC-62 melanoma, in the test with U251 CNS and in the test on ACHN renal was > 100 µM throughout. Also, the TGI with MDA-N, in the test with SK-MEL-2 melanoma and in the test with SK-OV-3 ovarian was > 100 µM in each case.

As for `O=C1CC(c2ccccc2Cl)C2(C(=O)NC(=O)NC2=O)C(c2ccccc2Cl)C1` (configuration not stated), the TGI in the test on EKVX NSCLC, with MCF7 breast, with HT29 colon, in the test with UACC-62 melanoma, in the test with U251 CNS and with ACHN renal was > 100 µM throughout. The TGI in the test on MDA-N, with SK-MEL-2 melanoma and with SK-OV-3 ovarian was > 100 µM throughout.

With `CCCCCCCCCCCCOCCOCCOCCOCCOCCOCC(=O)NC(Cc1ccccc1)C(=O)Oc1ccc([N+](=O)[O-])cc1` (configuration not stated), the TGI in the test with EKVX NSCLC was > 100 µM; in the test with MCF7 breast, > 100 µM; in the test with HT29 colon, > 100 µM; in the test with UACC-62 melanoma, 56.4 µM; in the test on U251 CNS, > 100 µM; in the test with ACHN renal, > 100 µM. Also, the TGI in the test on MDA-N was > 100 µM; in the test on SK-MEL-2 melanoma, 47.9 µM; in the test with SK-OV-3 ovarian, > 100 µM.

As for `CN(C)CCCNc1cc(O)c2c(c1O)C(=O)c1ccccc1C2=O`, the TGI in the test with EKVX NSCLC worked out at 31.1 µM; in the test with MCF7 breast it was 35.9 µM; with HT29 colon it was 24 µM; with UACC-62 melanoma it was 35.3 µM; with U251 CNS it was 27.2 µM; in the test with ACHN renal it was 27.5 µM. Moreover, the TGI in the test with MDA-N amounted to 27.4 µM; in the test on SK-MEL-2 melanoma, 35.7 µM; in the test on SK-OV-3 ovarian it was 24.8 µM.

With `C=C1C[C@@H]2CC[C@@]34C[C@H]5O[C@H]6[C@@H](O3)[C@H]3O[C@H](CC[C@@H]3O[C@H]6[C@H]5O4)CC(=O)C[C@@H]3[C@@H](OC)[C@@H](C[C@H](O)CN)O[C@H]3C[C@H]3O[C@@H](CC[C@@H]1O2)C[C@@H](C)C3=C`, the TGI in the test on EKVX NSCLC is 0.273 µM; in the test with MCF7 breast it was > 1 µM; with HT29 colon it was 0.0133 µM; with UACC-62 melanoma it was > 1 µM; with U251 CNS, > 0.199 µM; with ACHN renal, > 1 µM. The TGI in the test with MDA-N is 0.000354 µM; with SK-MEL-2 melanoma it was > 0.167 µM; in the test with SK-OV-3 ovarian, 0.286 µM. Also, the GI50 (usually the concentration that inhibits growth by half) in the test on MDA-N is 0.0001 µM.

In the case of `O=C(/C=C\Nc1ccccc1O)C(F)(F)F`, the TGI in the test on EKVX NSCLC, in the test on MCF7 breast, with HT29 colon, in the test on UACC-62 melanoma, with U251 CNS and in the test on ACHN renal was > 100 µM throughout. The TGI in the test on MDA-N, in the test on SK-MEL-2 melanoma and in the test on SK-OV-3 ovarian was > 100 µM each time.

`N#Cc1nc(C2CCC(=O)O2)oc1N` (configuration not stated): the TGI in the test with EKVX NSCLC, in the test on MCF7 breast, in the test with HT29 colon, in the test with UACC-62 melanoma, with U251 CNS and with ACHN renal was > 100 µM in each case. For the same compound, the TGI in the test with MDA-N, in the test on SK-MEL-2 melanoma and with SK-OV-3 ovarian was > 100 µM in each case.

Turning to `Nc1nncc2[nH]cnc12`, the TGI in the test with EKVX NSCLC is > 100 µM; with MCF7 breast it was > 31.6 µM; with HT29 colon, > 100 µM; with UACC-62 melanoma, > 100 µM; in the test with U251 CNS, > 100 µM; in the test on ACHN renal, > 100 µM. In addition, the TGI with MDA-N, with SK-MEL-2 melanoma and in the test with SK-OV-3 ovarian was > 100 µM each time.
